These results are taken from US12084458B2, “Substituted pyridines, pyridazines, and pyrimidines as TYK2 inhibitors” (Sudo Biosciences Limited, priority 2021, dated 2024).

In assay [1] the test system is HEK-Blue IFNα/β cells (IFNα-stimulated STAT1 SEAP reporter; TYK2 JH2). The experiment in a line: HEK-Blue IFNα/β SEAP reporter assay for profiling TYK2 pseudokinase (JH2) inhibition. The assay is classed as cell-based. The arrangement: IFNα (TYK2 inhibitory activity, IC50): scale not given here. The settings on record: 1 ng/mL human recombinant IFNα; for IC50: Homo sapiens, HEK-Blue, read-out: IFNα (TYK2 inhibitory activity, IC50). The procedure:
(§1) Example B-1: HEK-Blue™ IL-23 and IFNα/β Reporter Assays for Profiling TYK2 Pseudokinase (JH2) Inhibition
(§2) HEK-Blue™ IL-23 and IFNα/β cells with a stably-integrated cytokine receptor and STAT3 or STAT1 express STAT-inducible secreted embryonic alkaline phosphatase (SEAP) reporter gene upon cytokine stimulation. These cells are plated in DMEM (Gibco) containing 10% heat-inactivated FBS (Gibco) and 100 U/mL PenStrep (Gibco) at 37° C. under 5% CO2 conditions for 20-22 hours. The cells are then pretreated with serially diluted test compounds for 60 min prior to stimulation with either 10 ng/mL human recombinant IL-23 (Miltenyl Biotech) or 1 ng/mL human recombinant IFNα (InvivoGen) for 22-24 hours for IL-23 or 16-18 h for IFNα. SEAP induction is measured using the QUANTI Blue™ Solution (InvivoGen) according to the manufacturer's instructions.

Assay [2] has as its system HEK-Blue IL-23 cells (IL-23-stimulated STAT3 SEAP reporter; TYK2 JH2). The experiment in a line: HEK-Blue IL-23 SEAP reporter assay for profiling TYK2 pseudokinase (JH2) inhibition. The assay is classed as cell-based. The settings on record: 10 ng/mL human recombinant IL-23, SEAP reporter, read-out: IL23 (TYK2 inhibitory activity, IC50). How it is done:
as §1, §2

One may read the IC50 as the concentration that inhibits the measured activity by half.

In the case of `CNC(=O)c1nnc(NC(=O)C2CC2)cc1Nc1cccc2c1OCCCn1cnnc1-2` [Compound 75, 6-(cyclopropanecarboxamido)-4-((6,7-dihydro-5H-benzo[b][1,2,4]triazolo[3,4-d][1,5]oxazocin-9-yl)amino)-N-methylpyridazine-3-carboxamide], the IC50 in assay [1] and in assay [2] was over 1 µM each time.
Consider `[2H]C([2H])([2H])NC(=O)c1nnc(NC(=O)C2(F)CC2)cc1Nc1cccc2c1N(C)Cc1nc(C)nn1-2` [Compound 37, 4-((2,5-dimethyl-4,5-dihydro-[1,2,4]triazolo[1,5-a]quinoxalin-6-yl)amino)-6-(1-fluorocyclopropane-1-carboxamido)-N-(methyl-d3)pyridazine-3-carboxamide], for which the values for the IC50 in assay [1] and in assay [2] were over 1 µM and 0.03 to 0.3 µM, respectively.
Turning to `[2H]C([2H])([2H])NC(=O)c1nnc(Nc2cc(C)cc(C)c2)cc1Nc1cccc2c1N(C)Cc1nc(C)nn1-2` [Compound 16, 4-((2,5-dimethyl-4,5-dihydro-[1,2,4]triazolo[1,5-a]quinoxalin-6-yl)amino)-6-((3,5-dimethylphenyl)amino)-N-(methyl-d3)pyridazine-3-carboxamide], the “IFNα (TYK2 inhibitory activity, IC50)” value in assay [1] was “C/D”. The IC50 in assay [2] fell in the range of 0.03 to 0.3 µM.
`[2H]C([2H])([2H])NC(=O)c1nnc(NC(=O)[C@H]2CC2(F)F)cc1Nc1cccc2c1N(C)Cc1nc(C)nn1-2` [Compound 42, (R)-6-(2,2-difluorocyclopropane-1-carboxamido)-4-((2,5-dimethyl-4,5-dihydro-[1,2,4]triazolo[1,5-a]quinoxalin-6-yl)amino)-N-(methyl-d3)pyridazine-3-carboxamide]: the IC50 in assay [1] and in assay [2] was 0.03 to 0.3 µM throughout.
Turning to `CNC(=O)c1nnc(Nc2ccc(F)cn2)cc1Nc1cccc2c1OCc1nc(C)nn1-2` [Compound 2, 6-((5-fluoropyridin-2-yl)amino)-N-methyl-4-((2-methyl-4H-benzo[b][1,2,4]triazolo[1,5-d][1,4]oxazin-6-yl)amino)pyridazine-3-carboxamide], the IC50 in assay [1] and in assay [2] was over 1 µM in each case.
`[2H]C([2H])([2H])NC(=O)c1nnc(NC(=O)C2CC2)cc1Nc1cccc2c1N(C)[C@H](C)c1nc(C)nn1-2` (single isomer, unassigned) [Compound 23]: the figures for the IC50 in assay [1] and in assay [2] were 0.03 to 0.3 µM and under 0.03 µM, respectively.
On the same counts, the results for `[2H]C([2H])([2H])NC(=O)c1cnc(NC(=O)C2CC2)cc1Nc1cccc2c1N(C)[C@H](C)c1nc(C)nn1-2` (single isomer, unassigned) [Compound 24] are 0.03 to 0.3 µM and under 0.03 µM.
Regarding `[2H]C([2H])([2H])NC(=O)c1nnc(NC(=O)C2CC2)cc1Nc1nccc2c1N(C)[C@@H](C([2H])([2H])[2H])c1nn(C)nc1-2` [Compound 113, (S)-6-(cyclopropanecarboxamido)-4-((2,5-dimethyl-4-(methyl-d3)-4,5-dihydro-2H-[1,2,3]triazolo[4,5-c][1,7]naphthyridin-6-yl)amino)-N-(methyl-d3)pyridazine-3-carboxamide], the IC50 in assay [1] and in assay [2] was 0.03 to 0.3 µM in each case.
For the compound `[2H]C([2H])([2H])NC(=O)c1nnc(NC(=O)C2CC2)cc1Nc1nccc2c1N(C)[C@H](C([2H])([2H])[2H])c1nn(C)nc1-2` [Compound 114, (R)-6-(cyclopropanecarboxamido)-4-((2,5-dimethyl-4-(methyl-d3)-4,5-dihydro-2H-[1,2,3]triazolo[4,5-c][1,7]naphthyridin-6-yl)amino)-N-(methyl-d3)pyridazine-3-carboxamide], the IC50 in assay [1] and in assay [2] was under 0.03 µM each time.
Regarding `[2H]C([2H])([2H])NC(=O)c1nnc(NC(=O)C(C)C)cc1Nc1cccc2c1N(C)Cc1nc(C)nn1-2` [Compound 17, 4-((2,5-dimethyl-4,5-dihydro-[1,2,4]triazolo[1,5-a]quinoxalin-6-yl)amino)-6-isobutyramido-N-(methyl-d3)pyridazine-3-carboxamide], the results for the IC50 in assay [1] and in assay [2] were 0.3 to 1 µM and 0.03 to 0.3 µM, respectively.
For the compound `[2H]C([2H])([2H])NC(=O)c1nnc(N2CCN(C(C)C)C2=O)cc1Nc1cccc2c1N(C)Cc1nc(C)nn1-2` [Compound 81, 4-((2,5-dimethyl-4,5-dihydro-[1,2,4]triazolo[1,5-a]quinoxalin-6-yl)amino)-6-(3-isopropyl-2-oxoimidazolidin-1-yl)-N-(methyl-d3)pyridazine-3-carboxamide], in assay [1], the “IFNα (TYK2 inhibitory activity, IC50)” value was “C/D”. The half-maximal inhibitory concentration (IC50) in assay [2] is 0.03 to 0.3 µM.
Consider `[2H]C([2H])([2H])NC(=O)c1nnc(NC(=O)CC(F)(F)F)cc1Nc1cccc2c1N(C)Cc1nc(C)nn1-2` [Compound 18, 4-((2,5-dimethyl-4,5-dihydro-[1,2,4]triazolo[1,5-a]quinoxalin-6-yl)amino)-N-(methyl-d3)-6-(3,3,3-trifluoropropanamido)pyridazine-3-carboxamide], for which the figures for the IC50 in assay [1] and in assay [2] were 0.3 to 1 µM and 0.03 to 0.3 µM, respectively.
For `CNC(=O)c1nnc(Nc2ccc(F)cn2)cc1Nc1cccc2c1OCCCn1cnnc1-2` [Compound 74, 4-((6,7-dihydro-5H-benzo[b][1,2,4]triazolo[3,4-d][1,5]oxazocin-9-yl)amino)-6-((5-fluoropyridin-2-yl)amino)-N-methylpyridazine-3-carboxamide], the IC50 in assay [1] and in assay [2] was over 1 µM in each case.
With `[2H]C([2H])([2H])NC(=O)c1nnc(NC(=O)C2CC2)cc1Nc1cccc2c1N(C)[C@H](C)c1nn(C)nc1-2` (single isomer, unassigned) [Compound 59], the IC50 was 0.03 to 0.3 µM in assay [1] and under 0.03 µM in assay [2].
For the compound `[2H]C([2H])([2H])NC(=O)c1nnc(NC(=O)NC)cc1Nc1cc(F)cc2c1N(C)Cc1nc(C)nn1-2` [Compound 103, 4-((8-fluoro-2,5-dimethyl-4,5-dihydro-[1,2,4]triazolo[1,5-a]quinoxalin-6-yl)amino)-N-(methyl-d3)-6-(3-methylureido)pyridazine-3-carboxamide], the half-maximal inhibitory concentration (IC50) in assay [1] and in assay [2] was 0.03 to 0.3 µM throughout.
On to `[2H]C([2H])([2H])NC(=O)c1nnc(NC(=O)NC)cc1Nc1cccc2c1N(C)[C@H](C)c1nn(C)nc1-2` (single isomer, unassigned) [Compound 61], for which the figures for the IC50 in assay [1] and in assay [2] were 0.3 to 1 µM and 0.03 to 0.3 µM, respectively.
On the same counts, the results for `[2H]C([2H])([2H])NC(=O)c1cnc(NC(=O)C2CC2)cc1Nc1cccc2c1N(C)[C@H](C)c1nn(C)nc1-2` (single isomer, unassigned) [Compound 58] are 0.3 to 1 µM and under 0.03 µM.
For `[2H]C([2H])([2H])NC(=O)c1nnc(NS(=O)(=O)C2CC2)cc1Nc1cccc2c1N(C)Cc1nc(C)nn1-2` [Compound 38, 6-(cyclopropanesulfonamido)-4-((2,5-dimethyl-4,5-dihydro-[1,2,4]triazolo[1,5-a]quinoxalin-6-yl)amino)-N-(methyl-d3)pyridazine-3-carboxamide], in that order: over 1 µM and over 1 µM.
Take `[2H]C([2H])([2H])NC(=O)c1cnc(NC(=O)C2CC2)cc1Nc1cc(F)cc2c1N(C)[C@H](C)c1nc(C)nn1-2` (single isomer, unassigned) [Compound 106]: the concentration for half-maximal inhibition (IC50) in assay [1] was over 1 µM; in assay [2], 0.03 to 0.3 µM.
For `[2H]C([2H])([2H])NC(=O)c1nnc(NC(=O)C2CC2)cc1Nc1c(F)ccc2c1N(C)Cc1nc(C)nn1-2` [Compound 98, 6-(cyclopropanecarboxamido)-4-((7-fluoro-2,5-dimethyl-4,5-dihydro-[1,2,4]triazolo[1,5-a]quinoxalin-6-yl)amino)-N-(methyl-d3)pyridazine-3-carboxamide], the “IFNα (TYK2 inhibitory activity, IC50)” value in assay [1] is recorded as “C/D”. Also, in assay [2], the IC50 was in the range of 0.03 to 0.3 µM.
Regarding `[2H]C([2H])([2H])NC(=O)c1nnc(NC(=O)C2CC2)cc1Nc1ccnc2c1N(C)Cc1nc(C)nn1-2` [Compound 87, 6-(cyclopropanecarboxamido)-4-((2,5-dimethyl-4,5-dihydropyrido[3,2-e][1,2,4]triazolo[1,5-a]pyrazin-6-yl)amino)-N-(methyl-d3)pyridazine-3-carboxamide], the values for the half-maximal inhibitory concentration (IC50) in assay [1] and in assay [2] were 0.3 to 1 µM and 0.03 to 0.3 µM, respectively.
On the same counts, the results for `[2H]C([2H])([2H])NC(=O)c1nnc(NC(=O)[C@H]2C[C@H]2F)cc1Nc1nccc2c1N(C)Cc1nn(C)nc1-2` [Compound 115, 4-((2,5-dimethyl-4,5-dihydro-2H-[1,2,3]triazolo[4,5-c][1,7]naphthyridin-6-yl)amino)-6-((1R,2R)-2-fluorocyclopropane-1-carboxamido)-N-(methyl-d3)pyridazine-3-carboxamide] are under 0.03 µM and under 0.03 µM.
For `[2H]C([2H])([2H])NC(=O)c1nnc(NC(=O)[C@@H]2C[C@@H]2F)cc1Nc1nccc2c1N(C)Cc1nn(C)nc1-2` [Compound 116, 4-((2,5-dimethyl-4,5-dihydro-2H-[1,2,3]triazolo[4,5-c][1,7]naphthyridin-6-yl)amino)-6-((1S,2S)-2-fluorocyclopropane-1-carboxamido)-N-(methyl-d3)pyridazine-3-carboxamide], the IC50 in assay [1] lay within 0.3 to 1 µM; in assay [2], 0.03 to 0.3 µM.
